# Results: the METLIN SMRT retention time set (Domingo-Almenara et al. 2019)
# Test: gradient 5% acetonitrile 3 min, to 50% in 2 min, to 85% in 15 min, held 3 min, 100 µL/min
# Conditions: column: Zorbax Extend-C18 2.1 x 50 mm; eluents: water / acetonitrile, 0.1% formic acid
# How it was run: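 In both positive and negative ionization mode, a quadrupole time-of-flight mass spectrometer coupled to HPLC analyzed pure standards run in mixtures of ~100 molecules. The Zorbax Extend-C18 column (2.1 × 50 mm, 1.8 μm) was operated at 100 μL/min with water and acetonitrile, each containing 0.1% formic acid. The dead volume was 40 μL and the dwell volume 900 μL. Retention time came from adduct peaks that were computationally picked and individually inspected by hand.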
row,SMILES,RP-LC retention time
1,COc1ccc(C(C)NC(=O)C2CCN(c3cncnc3N3CCOCC3)CC2)cc1 (stereo not given),601 s
2,COc1cccc(NS(=O)(=O)c2cc(-c3nc(C)c(C(=O)N4CCCC4)s3)cs2)c1,844 s
3,Cc1ccc(-c2nnc(Cc3nc(-c4ccc(OC(C)C)cc4)no3)o2)cc1F,1190 s
4,CN(CC1CCOCC1)S(=O)(=O)c1cccc(F)c1,811 s
5,Cc1cc(N2CCCCC2)nc(N2CCN(C(=O)c3ccc(C(C)(C)C)cc3)CC2)n1,855 s
6,CCOc1ccc(S(=O)(=O)N2CCCC(C(=O)NC)C2)cc1C (stereo not given),788 s
7,COc1ccc(N2CCN(C(=O)Cn3ncc4c(c3=O)N(C)C(=O)CS4)CC2)cc1,635 s
8,CC(C)n1c(N2CCCN(C(=O)c3ccncc3)CC2)cc(=O)n(C(C)C)c1=O,621 s
9,Cc1ccnc(NC(=O)C2CCN(S(=O)(=O)c3cc(-c4noc(C5CC5)n4)ccc3C)CC2)c1,811 s
10,Cc1cc(C)n(CCC(=O)N2CCCn3ccnc3C2C2CCCC2)n1 (stereo not given),604 s
11,Cc1cc(NC(=O)CSc2nncn2C)no1,554 s
12,CC(C)n1c(=O)oc2cc(-c3noc(-c4ccc(Br)cc4)n3)ccc21,1350 s
13,CC(=O)N1CCC(C(=O)N(C)C2CCc3nn(C)c(=O)n3CC2)CC1 (stereo not given),569 s
14,CCN1CCCn2cc(S(=O)(=O)Nc3cccc(OC)c3)cc2C1=O,698 s
15,CC1CCN(S(=O)(=O)c2cccn(CC#N)c2=O)CC1,749 s
16,O=C1COc2ccc(-c3csc(NC(=O)C4CCCCC4)n3)cc2N1,884 s
17,CC1CCC(NC(=O)c2nnc(-c3ccc(S(=O)(=O)N4CCCC4)cc3)o2)CC1 (stereo not given),1020 s
18,O=C(NCCn1cnc2cc(C(=O)N3CCCC3)ccc21)NCc1ccco1,985 s
19,CCN(CC)C(=O)C1CCCN(S(=O)(=O)c2ccc(OC)c(C)c2)C1 (stereo not given),881 s
20,CC(C)(C)C(=O)NC1CCN(C(=O)c2ccccc2)C1 (stereo not given),676 s

row,SMILES,RP-LC retention time
1,COc1cccc(NC(=O)C2CCN(c3nnc4c(Cl)cccn34)CC2)c1,666 s
2,O=C(NCc1cccs1)C1CCCN(S(=O)(=O)c2c[nH]c(C(=O)N3CCCCCC3)c2)C1 (stereo not given),812 s
3,Cc1cccn2cc(C(=O)N3CCN(c4ccc(Cl)cc4)CC3)nc12,946 s
4,CCN1CCN(CCNC(=O)C2CN(C(=O)c3cccs3)CC23CCCCC3)CC1 (stereo not given),589 s
5,O=S(=O)(c1ccc(-c2nnc(C3CC3)o2)o1)N1CCOCC1,717 s
6,COc1ccc(NC(=O)C2CCN(c3cncnc3N3CCCC3)CC2)cc1OC,616 s
7,C#CC(C)(CC)OCC(O)CN1C(C)(C)CC(O)CC1(C)C (stereo not given),568 s
8,CN(C)c1ccc(C(=O)N2CCCC2COc2ccc(C(=O)N3CCCC3)cc2)cc1 (stereo not given),748 s
9,CNC(=O)C1CCCN(c2nc3ncn(CC(=O)Nc4cc(F)ccc4F)c(=O)c3s2)C1 (stereo not given),641 s
10,COc1ccccc1NC(=O)N1CCCC1c1c(C)noc1C (stereo not given),797 s
11,O=c1n(CCOc2ccccc2)nc2ccc(S(=O)(=O)N3CCCC3)cn12,842 s
12,CCN1C(=O)C2(CCN(S(=O)(=O)c3c(C)nn(C)c3C)CC2)c2ccccc21,841 s
13,CCc1ccc(-n2ncc3c(=O)n(Cc4nc(-c5ccc(C)c(C)c5)no4)cnc32)cc1,1300 s
14,COc1ccc(C(=O)Nc2cnn(C)c(=O)c2N2CCCCC2)cc1,923 s
15,COc1ccc(NC(=O)N2[C@H]3CC[C@@H]2c2cnc(-c4ccccc4)nc2C3)c(OC)c1,894 s
16,COCCN1CCC2(CCC1=O)CCN(C(=O)Nc1ccc(Br)cc1)CC2,740 s
17,COC(=O)c1cccc(C(=O)N2CCN(c3cc(C)ccc3C)CC2)n1,959 s
18,Cc1cccc(N2CCN(Cc3nc(-c4ccc(N5CCCCC5)nc4)no3)CC2)c1C,1160 s
19,Cn1cc(C(=O)O)c(S(=O)(=O)N2CCOCC2)n1,576 s
20,Cc1ccc(N2C(=O)C3N=NN(Cc4nc(-c5ccc6c(c5)OCO6)no4)C3C2=O)cc1 (stereo not given),957 s

# The remaining lines, values ahead:
row,RP-LC retention time,SMILES
1,584 s,Cc1c(CN2CCC[C@H]2c2nc(-c3ccccc3)n[nH]2)cnn1C
2,1040 s,CCn1c(=O)c(N2CCC(NC(=O)Nc3cccc(Br)c3)CC2)nc2ccccc21
3,720 s,Cc1c(Cl)cccc1NC(=O)N1CC(n2cnnc2-c2ccccc2)C1
4,1070 s,CC(C)Cn1c(=O)c(C(=O)NCc2ccccc2C(F)(F)F)nc2cccnc21
5,729 s,Cc1cc(F)ccc1NC(=O)C1CCN(S(=O)(=O)c2ccc3[nH]c(=O)ccc3c2)CC1
6,592 s,CN1CCCc2cc(C(=O)NCc3cccnc3)sc21
7,820 s,O=C(Nc1ccccc1)N1CCCC(c2nnnn2-c2ccccc2)C1 (stereo not given)
8,1020 s,COc1ccccc1Nc1c(-c2ccc(Cl)cc2)nc2cnccn12
9,1130 s,Cc1nn(C(C)C(=O)Nc2cc(F)ccc2F)c(=O)c2c(-n3cccc3)n(-c3ccccc3)nc12 (stereo not given)
10,854 s,CCOC(=O)c1nc(Nc2cccc(OC)c2)c2ccccc2n1
11,1050 s,O=c1c2oc3ccccc3c2ncn1Cc1nc(-c2ccc(F)c(Cl)c2)no1
12,614 s,Cc1ccc(CNC(=O)c2ccc(=O)n(CCN3CCCC3)c2)cc1
13,792 s,COc1cccc(NC(=O)Cn2nc(C(=O)N3CCCC3)c3ccccc32)c1
14,772 s,CCn1ccc2sc(C)c(C(=O)NCc3cccs3)c2c1=O
15,753 s,CCc1ccc(CNC(=O)CCc2c(-c3ccc(Br)cc3)nc3ccccn23)cc1
16,835 s,COc1ccc(OC)c(-c2cn3ccn(-c4cccc(F)c4)c(=O)c3n2)c1
17,969 s,Cn1c(C(=O)NCCc2c[nH]c3ccccc23)cc2c(-c3cccs3)nn(-c3ccccc3)c21
18,867 s,Cc1ccc(CNc2c(-c3ccc(Cl)cc3)nc3ncccn23)cc1
19,562 s,O=C(NCCCN1CCCC1)c1cc(-c2cccnc2)nc2ccccc12
20,1280 s,Cc1cc(C)cc(C(=O)NC2(c3nc(-c4ccccc4)no3)CCCCC2)c1
21,1020 s,Cn1cc(-c2nc(C(=O)Nc3cccc(F)c3)cs2)c2cccnc21
22,698 s,Cc1c(C2CCN(C(=O)Cc3ccc(F)cc3)CC2)noc1N
23,867 s,O=C(NCc1nc(-c2ccc(NS(=O)(=O)c3ccc(F)cc3)cc2)no1)c1cccs1
24,1040 s,O=C(NCc1ccccc1)c1cc(-c2ccc(F)cc2)ns1
25,1040 s,O=C(Cc1csc2nc(-c3cccc(Br)c3)cn12)N1CCc2ccccc21

row,RP-LC retention time,SMILES
1,1120 s,COc1ccc(-c2csc(NC(=O)CSc3nc4c(cc3C#N)CCC4)n2)cc1
2,722 s,O=C(Cc1c[nH]c2ccccc12)N1CCCN(c2cc(-c3ccc(Br)cc3)[nH]n2)CC1
3,1060 s,Cc1ccc(N(C)S(=O)(=O)c2ccc(-c3c(C)noc3C)cc2)cc1
4,932 s,CCn1c(=O)sc2cc(S(=O)(=O)N3CCC(C(=O)NCc4cccc(C)c4)CC3)ccc21
5,794 s,O=C(NCc1ccccc1F)c1cc2n(n1)CCCC2
6,772 s,Clc1ccc(Cl)c(-c2ccc(CNCc3cccs3)o2)c1
7,849 s,O=C(c1ccc(Br)cc1)N1CCN(c2cc(-c3ccccc3)[nH]n2)CC1
8,700 s,O=C(NCc1ccc(F)cc1F)C1CCCN(c2ncnc3nn(-c4ccc(F)cc4)cc23)C1 (stereo not given)
9,986 s,O=C(Nc1ccc2c(c1)OCO2)C(=O)c1cccn1Cc1ccccc1
10,843 s,CCOc1cccc(NC2=NS(=O)(=O)c3ccccc32)c1
11,954 s,CCCNC(=O)c1ccccc1OCc1nc(-c2ccccc2)no1
12,879 s,Cc1cccc(CNC(=O)C2CCN(C(=O)c3ncn4c3COC(c3ccccc3)C4)CC2)c1 (stereo not given)
13,1080 s,Cc1ccc(N2C(=O)N(Cc3cccc(F)c3)S(=O)(=O)c3cccnc32)cc1
14,1040 s,O=C1N(c2ccc(F)cc2)c2ncccc2S(=O)(=O)N1Cc1ccccc1F
15,946 s,Cc1cc(=O)n(Cc2cccc(F)c2)c(N2CCSCC2)n1
16,582 s,Fc1ccc(-c2ccc(CNCC3CCNCC3)o2)cc1Cl
17,1190 s,CCc1cc(C(=O)Nc2cc(C)ccc2OC)nc2ccnn12
18,993 s,O=C(Nc1ccccc1)c1cn(CC2CCCO2)cc2c(=O)n(-c3ccccc3)nc1-2 (stereo not given)
19,830 s,COc1ccc(N2CCN(c3cc(SCC(=O)NCc4ccc(F)cc4)ncn3)CC2)cc1
20,831 s,Cc1ccc2nc(-c3ccc(Cl)cc3)c(Nc3ccc(Cl)cc3)n2c1
21,624 s,O=C(CCc1csc(NC(=O)c2ccc(F)cc2)n1)NCCn1ncccc1=O
22,1220 s,Cn1cccc1C(=O)N1CC(Oc2cccc(-c3nc(-c4ccccc4)no3)c2)C1
23,1030 s,CS(=O)(=O)N1CCC(C(=O)Nc2ccc(C(F)(F)F)cc2)Oc2ccccc21 (stereo not given)
24,612 s,Cc1nc(-c2ccc(C(=O)NCc3cccnc3)cc2)cs1
25,762 s,CCC(=O)Nc1ccc(-n2cnc(C(=O)NCc3ccc(F)cc3Cl)c2)nc1
